Consider 40 compounds from patent EP2818471A1, “Nitrogen bicyclic compounds as inhibitors for Scyl1 and Grk5” (Max-Planck-Gesellschaft zur Förderung der Wissenschaften …, priority 2013, dated 2014).

In this test the test system is beta-TC6 cells. Kind of test: Insulin HTRF assay, relative activity Ar normalized to sunitinib. The settings on record: Mus musculus, normalized to positive control sunitinib (5 µM = 100%), Table 10. Format: cell-based. The text has this:
For further screening of compounds derived from compounds described above for their ability to regulate insulin release an insulin HTRF® (Homogeneous Time-Resolved Fluorescence; Cisbio International, France) was used. This assay is based on two antibodies against insulin binding to different epitopes of insulin. One of these antibodies is coupled to Europium (Ab-Eu-Cryptate) and the other one to the fluorophore XL665 (Ab-XL665). Is insulin secreted into the supernatant of cell culture both antibodies can bind to insulin and come therefore into close proximity which allows upon excitation that energy transfer between (FRET) the long-life fluorescent donor Europium (cryptate) and the acceptors XL665. FRET increases proportionally with insulin concentration.
The automated assay protocol is as follows: • On day 1 15k beta-TC6 cells per well were seeded for 24 or 48 h in 50 µl complete medium. On day 2 or respective on day 3 the medium is removed and cells are washed with 60 µl 1xPBS and 20 µl induction buffer is added using BioTek washer. Subsequently, 10 µl Sunitininb (5 µM f.c.) or the test compound in induction buffer; 0.5% f.c. DMSO (CyBi-well) is transferred to the cells. The cells are then incubated at 37°C for 2, 3, 4h.
The HTRF assay is carried out using Greiner 384-well 784075 assay plates. First 10 µl supernatant is transferred from the cell plates in HTRF plates (CyBi-well). 10 µl of 0, 1, 2, and 4 ng/ml Insulin standard controls in assay medium is used as a control. To each well 10 µl of combined 1:25 Ab-XL665 (Acc) and 1:20 Ab-Eu-Cryptate (WellMate) are added and incubated for 120 min at RT in the dark. Finally HTRF is measured on ViewLux ultra high throughput microplate imager (PerkinElmer).
The evaluation software DataFactoty derives relative activities Ar according to the following equation: Ar = (V-R(0%control))/(R(100%control) -R(0%control)) × 100 [formula] […]
The activity of the compounds was classified according to their Ar (relative activity) into the following ranges: Ar ≥ 100% + + + +; 50% ≤ Ar < 100% + + +; 20% ≤ Ar < 50% + +; 10% < Ar < 20% + [formula] Table 10. Ar (relative activity) values of inventive compounds
`CC(C)[C@@H](CO)Nc1ccc2ncc(-c3ccc(N)cc3)n2n1` [compound 5, (2S)-2-[[3-(4-aminophenyl)imidazo[1,2-b]pyridazin-6-yl]amino]-3-methyl-butan-1-ol] registered an Emax of 50 to 100%. On to `COc1ccc(-c2cnc3ccc(NCc4cccs4)nn23)c(OC)c1` [compound 6, 3-(2,4-dimethoxyphenyl)-N-(2-thienylmethyl)imidazo[1,2-b]pyridazin-6-amine], for which the Emax lay within 20 to 50%. For `COCCNc1ccc2ncc(-c3ccc(C(=O)Nc4ccc(OC)cc4)cc3)n2n1` [compound 7, 4-[6-(2-methoxyethylamino)imidazo[1,2-b]pyridazin-3-yl]-N-(4-methoxyphenyl)benzamide] the value was 20 to 50%. For `CCC(CO)Nc1ccc2ncc(-c3ccccc3Cl)n2n1` (stereo not shown) [compound 9, 2-[[3-(2-chlorophenyl)imidazo[1,2-b]pyridazin-6-yl]amino]butan-1-ol] the value was 10 to 20%; for `COc1cc(-c2cnc3ccc(NCc4cccc(Cl)c4)nn23)ccc1O` [compound 16, 4-[6-[(3-chlorophenyl)methylamino]imidazo[1,2-b]pyridazin-3-yl]-2-methoxy-phenol], 20 to 50%; for `CC(=O)Nc1cccc(-c2cnc3ccc(NCc4ccc(F)cc4)nn23)c1` [compound 19, N-[3-[6-[(4-fluorophenyl)methylamino]imidazo[1,2-b]pyridazin-3-yl]phenyl]acetamide], 10 to 20%. For `CCCNc1ccc2ncc(-c3ccc(C(=O)O)cc3)n2n1` [compound 20, 4-[6-(propylamino)imidazo[1,2-b]pyridazin-3-yl]benzoic acid] the value was 10 to 20%.

On to `CCCNc1ccc2ncc(-c3cccc(/C=C/C(=O)O)c3)n2n1` [compound 21, (E)-3-[3-[6-(propylamino)imidazo[1,2-b]pyridazin-3-yl]phenyl]prop-2-enoic acid], for which the maximal effect (Emax) lay within 10 to 20%. `c1cncc(CCNc2ccc3ncc(-c4ccc(N5CCOCC5)cc4)n3n2)c1` [compound 24, 3-(4-morpholinophenyl)-N-[2-(3-pyridyl)ethyl]imidazo[1,2-b]pyridazin-6-amine]: the Emax is 50 to 100%. `c1cncc(CCNc2ccc3ncc(-c4ccc5ccccc5c4)n3n2)c1` [compound 25, 3-(2-naphthyl)-N-[2-(3-pyridyl)ethyl]imidazo[1,2-b]pyridazin-6-amine] had an Emax of 10 to 20%. The compound `c1cc2c(cc1CNc1ccc3ncc(-c4ccc(N5CCOCC5)cc4)n3n1)OCO2` [compound 26, N-(1,3-benzodioxol-5-ylmethyl)-3-(4-morpholinophenyl)imidazo[1,2-b]pyridazin-6-amine] yielded an Emax of 20 to 50%.

Regarding `OC1CCC(Nc2ccc3ncc(Br)n3n2)CC1` (stereo not shown) [compound 32, 4-[(3-bromoimidazo[1,2-b]pyridazin-6-yl)amino]cyclohexanol], the maximal effect (Emax) was 10 to 20%. The compound `Nc1cccc(-c2cnc3ccc(NC4CCOCC4)nn23)c1` [compound 33, 3-(3-aminophenyl)-N-tetrahydropyran-4-yl-imidazo[1,2-b]pyridazin-6-amine] had an Emax of 20 to 50%.

Compound `COc1ccc(CNc2ccc3ncc(-c4ccc(O)cc4)n3n2)cc1` [compound 36, 4-[6-[(4-methoxyphenyl)methylamino]imidazo[1,2-b]pyridazin-3-yl]phenol] gave an Emax of 20 to 50%.

`COc1ccc(CNc2ccc3ncc(-c4ccc5[nH]ccc5c4)n3n2)cc1` [compound 37, 3-(1H-indol-5-yl)-N-[(4-methoxyphenyl)methyl]imidazo[1,2-b]pyridazin-6-amine] had a maximum response (Emax) of 20 to 50%. For the compound `COc1ccc(CNc2ccc3ncc(-c4ccc(OC)cc4OC)n3n2)cc1` [compound 39, 3-(2,4-dimethoxyphenyl)-N-[(4-methoxyphenyl)methyl]imidazo[1,2-b]pyridazin-6-amine], the maximal effect (Emax) lay in the range of 10 to 20%. `COc1ccc(-c2cnc3ccc(NCCCO)nn23)cc1` [compound 41, 3-[[3-(4-methoxyphenyl)imidazo[1,2-b]pyridazin-6-yl]amino]propan-1-ol] showed an Emax of 10 to 20%. As to `COc1ccc(-c2cnc3ccc(NCCCO)nn23)c(OC)c1` [compound 42, 3-[[3-(2,4-dimethoxyphenyl)imidazo[1,2-b]pyridazin-6-yl]amino]propan-1-ol], the maximum response (Emax) lay in the range of 10 to 20%.

Consider `Brc1cnc2ccc(NCCCN3CCOCC3)nn12` [compound 44, 3-bromo-N-(3-morpholinopropyl)imidazo[1,2-b]pyridazin-6-amine], for which the Emax is 10 to 20%.

For the compound `COc1ccc(-c2cnc3ccc(N[C@H](CO)C(C)C)nn23)c(OC)c1` [compound 46, (2S)-2-[[3-(2,4-dimethoxyphenyl)imidazo[1,2-b]pyridazin-6-yl]amino]-3-methyl-butan-1-ol], the Emax lay within 20 to 50%. For `COc1ccc(-c2cnc3ccc(NCc4ccccn4)nn23)cc1OC` [compound 47, 3-(3,4-dimethoxyphenyl)-N-(2-pyridylmethyl)imidazo[1,2-b]pyridazin-6-amine] the value was 20 to 50%; for `COc1cc(CNc2ccc3ncc(-c4ccc(N(C)C)cc4)n3n2)cc(OC)c1OC` [compound 49, 3-(4-dimethylaminophenyl)-N-[(3,4,5-trimethoxyphenyl)methyl]imidazo[1,2-b]pyridazin-6-amine], 10 to 20%; for `COc1ccc(-c2cnc3ccc(NCC4CC4)nn23)cn1` [compound 51, N-(cyclopropylmethyl)-3-(6-methoxy-3-pyridyl)imidazo[1,2-b]pyridazin-6-amine], 10 to 20%. For `Cc1ccc(CNc2ccc3ncc(-c4ccc(O)cc4)n3n2)c(C)c1` [compound 52, 4-[6-[(2,4-dimethylphenyl)methylamino]imidazo[1,2-b]pyridazin-3-yl]phenol] the value was 20 to 50%. Compound `Cc1ccc(CNc2ccc3ncc(-c4ccc(C(=O)NCCN(C)C)cc4)n3n2)c(C)c1` [compound 54, N-(2-dimethylaminoethyl)-4-[6-[(2,4-dimethylphenyl)methylamino]imidazo[1,2-b]pyridazin-3-yl]benzamide] showed an Emax of 20 to 50%. To `CNc1ccc2ncc(/C=C\CCCO)n2n1` [compound 59, (Z)-5-[6-(methylamino)imidazo[1,2-b]pyridazin-3-yl]pent-4-en-1-ol] belongs 10 to 20%; to `CNc1ccc2ncc(-c3ccccc3O)n2n1` [compound 60, 2-[6-(methylamino)imidazo[1,2-b]pyridazin-3-yl]phenol], 20 to 50%; to `CNc1ccc2ncc(-c3cccc(C(=O)N(C)C)c3)n2n1` [compound 61, N,N-dimethyl-3-[6-(methylamino)imidazo[1,2-b]pyridazin-3-yl]benzamide], 20 to 50%. For `CN1CCN(c2ccc(-c3cnc4cccnn34)cn2)CC1` [compound 69, 3-[6-(4-methylpiperazin-1-yl)-3-pyridyl]imidazo[1,2-b]pyridazine] the value was 10 to 20%.

`CSc1ccc(-c2cnc3cccnn23)cc1` [compound 72, 3-(4-methylsulfanylphenyl)imidazo[1,2-b]pyridazine]: the Emax fell in the range of 10 to 20%. For `C(=C\c1cnc2cccnn12)/c1ccccc1` [compound 74, 3-[(E)-styryl]imidazo[1,2-b]pyridazine] the value was 20 to 50%; for `CCOc1cccc(-c2cnc3cccnn23)c1` [compound 76, 3-(3-ethoxyphenyl)imidazo[1,2-b]pyridazine], 10 to 20%; for `Cc1cc(-c2cnc3cccnn23)cc(C)c1O` [compound 77, 4-imidazo[1,2-b]pyridazin-3-yl-2,6-dimethyl-phenol], 10 to 20%. For `O=C(NCCO)c1ccc(-c2cnc3cccnn23)cc1` [compound 78, N-(2-hydroxyethyl)-4-imidazo[1,2-b]pyridazin-3-yl-benzamide] the value was 10 to 20%. For `c1cnn2c(-c3ccc4c(c3)CCO4)cnc2c1` [compound 80, 3-(2,3-dihydrobenzofuran-5-yl)imidazo[1,2-b]pyridazine] the value was 10 to 20%; for `N#Cc1cccc(-c2cnc3cccnn23)c1` [compound 82, 3-imidazo[1,2-b]pyridazin-3-ylbenzonitrile], 20 to 50%; for `Cc1cccc(-c2cnc3cccnn23)c1` [compound 84, 3-(m-tolyl)imidazo[1,2-b]pyridazine], 10 to 20%. `CCOc1ccc(-c2cnc3cccnn23)cc1` [compound 85, 3-(4-ethoxyphenyl)imidazo[1,2-b]pyridazine] had an Emax of 10 to 20%.

Compound `CSc1ccccc1-c1cnc2cccnn12` [compound 86, 3-(2-methylsulfanylphenyl)imidazo[1,2-b]pyridazine] came in with an Emax of 50 to 100%. For `CC(=O)c1ccc(-c2cnc3cccnn23)cc1` [compound 87, 1-(4-imidazo[1,2-b]pyridazin-3-ylphenyl)ethanone], the Emax lay in the range of 10 to 20%.
